Experimental data published in patent publication US9233948B2, “Pharmaceutical compositions comprising N-(4-(2-amino-3-chloropyridin-4-yloxy)-3-fluorophenyl)-4-ethoxy-1-(4-fluorophenyl)-2-oxo-1,2-dihydropyridine-3-carboxamide” (Bristol-Myers Squibb Company, priority 2010, dated 2016).
Values after ≈ are worked out from the molar mass of the structure shown. Read-outs that look alike come from different tables or passages of the source.

Key:
[1] = Aqueous solubility of crystalline forms of Compound (I); type: physicochemical
Source text: However, in the presence of an aqueous medium, the neat crystalline Form N-1 can convert to the crystalline sesquihydrate Form H1.5-2. […] One method to increase the bioavailability of compounds in a suspension is to increase the surface area of the particles in contact with the aqueous medium, which can be achieved by decreasing the particle size. However, reductions in particle size below diameters of approximately one micron requires specialized milling and dispersion techniques to prepare, stabilize, and sterilize the sub-micron suspensions. Desired is an aqueous suspension of Compound (I) in Form N-1 that has sufficient resistance to conversion to the sesquihydrate Form H1.5-2 to allow oral administration.

[2] = Chemical stability of tablets after accelerated storage; type: physicochemical; conditions: control
Description: The chemical stability of the 25 mg tablet of Example 9 was evaluated after accelerated storage at various temperatures and humidity conditions for periods up to one month.

[3] = Chemical and physical stability testing of Form N-1; type: physicochemical; conditions: several different temperature and humidity conditions
[4] = Pharmacokinetics of capsules of Form N-1 with two particle sizes; set-up: species or system dogs; conditions: dog, in vivo, 10 mg/kg, 10 mpk; for bioavailability: oral, compared to IV data, read-out: Absolute Bioavailability; for AUC / Cmax / Tmax: po
Description: The microsuspension of Example 7, tablets, and hard gelatin capsules containing the phosphate salt of Compound (I) were dosed orally at 10 mg/kg in dogs pretreated with pentagastrin. The resulting exposures were compared to an absolute bioavailability calculated by comparison to an IV dose in the same animals. Capsules were prepared comprising Compound (I), Form N-1 with two different particle sizes.

[5] = Particle Diameter D90 10 micron
[6] = Particle Diameter D90 70 micron

Q: For CCOc1ccn(-c2ccc(F)cc2)c(=O)c1C(=O)Nc1ccc(Oc2ccnc(N)c2Cl)c(F)c1 [Form H1.5-2, N-(4-(2-Amino-3-chloropyridin-4-yloxy)-3-fluorophenyl)-4-ethoxy-1-(4-fluorophenyl)-2-oxo-1,2-dihydropyridine-3-carboxamide], which “aqueous solubility compared to Form N-1” value [1] is on record?
A: lower aqueous solubility compared to Form N-1

Q: With CCOc1ccn(-c2ccc(F)cc2)c(=O)c1C(=O)Nc1ccc(Oc2ccnc(N)c2Cl)c(F)c1 [Compound (I), N-(4-(2-Amino-3-chloropyridin-4-yloxy)-3-fluorophenyl)-4-ethoxy-1-(4-fluorophenyl)-2-oxo-1,2-dihydropyridine-3-carboxamide] as the compound, how does the “Total Impurity” value [2] read?
A: 0.13%

Q: For CCOc1ccn(-c2ccc(F)cc2)c(=O)c1C(=O)Nc1ccc(Oc2ccnc(N)c2Cl)c(F)c1 [Form N-1, N-(4-(2-Amino-3-chloropyridin-4-yloxy)-3-fluorophenyl)-4-ethoxy-1-(4-fluorophenyl)-2-oxo-1,2-dihydropyridine-3-carboxamide], which “chemical and physical stability” value [3] is on record?
A: suitable chemical and physical stability

Q: And the solubility ([1]; aqueous medium, aqueous buffer, pH 7.4 and room temperature)?
A: ~0.25 µg/mL (≈ 0.487 µM)

Q: What about the bioavailability [4, 5] of the same compound?
A: ~32%

Q: And the bioavailability [4, 6]?
A: 12%

Q: And the AUC [4, 5]?
A: 90.2 ± 5.5 µM·h

Q: And the Cmax [4, 5]?
A: 15 ± 2.7 µM

Q: And the Tmax [4, 5]?
A: 6 h

Q: And the AUC [4, 6]?
A: 33.3 ± 8.4 µM·h

Q: And the Cmax [4, 6]?
A: 6.9 ± 1.1 µM

Q: What about the Tmax [4, 6] of the same compound?
A: 2 h
